{
  "source": "paper PMC8698759",
  "about": "“Gold(I) Complexes Bearing Alkylated 1,3,5-Triaza-7-phosphaadamantane Ligands as Thermoresponsive Anticancer Agents in Human Colon Cells” (Biomedicines, 2021)",
  "key": {"[1]": {"target": "T1, Recombinant Human TrxR1 (Homo sapiens, UniProt Q16881)", "T1 construct": "purchased Sigma-Aldrich SRP6081", "T1 sequence (Q16881 151-649 limits assumed)": "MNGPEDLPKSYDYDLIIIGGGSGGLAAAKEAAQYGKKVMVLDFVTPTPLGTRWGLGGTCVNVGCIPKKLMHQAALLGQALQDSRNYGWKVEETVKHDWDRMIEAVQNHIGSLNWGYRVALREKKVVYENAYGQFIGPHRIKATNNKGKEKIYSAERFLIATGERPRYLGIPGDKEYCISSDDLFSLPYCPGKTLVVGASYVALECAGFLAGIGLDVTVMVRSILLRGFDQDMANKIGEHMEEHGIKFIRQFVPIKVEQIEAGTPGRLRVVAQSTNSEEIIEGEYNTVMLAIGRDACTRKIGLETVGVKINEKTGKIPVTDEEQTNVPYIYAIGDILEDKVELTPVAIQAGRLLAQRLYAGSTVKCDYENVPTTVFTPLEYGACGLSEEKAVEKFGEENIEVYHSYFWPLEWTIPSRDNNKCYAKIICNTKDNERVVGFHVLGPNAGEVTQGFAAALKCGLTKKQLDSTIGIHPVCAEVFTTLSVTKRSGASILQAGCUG", "assay": "Thioredoxin reductase 1 (TrxR1) activity assay", "assay_type": "biochemical", "details": "auranofin 25 µM; 3a and 3b at IC50 concentrations", "method": "Recombinant Human TrxR1 (Sigma-Aldrich SRP6081, St. Louis, MO, USA) was incubated in a 96 well plate with different concentration of Au complex previously dissolved in 25 μL of PBS at pH 7.4. The cell solution was incubated in shake motion for 5 min at 37 °C. After incubation time, procedure in Thioredoxin Reductase Assay Kit (Sigma-Aldrich CS0170, St. Louis, MO, USA) was followed. Finally, reaction was started by adding 6 μL DNTB and absorbance at 405 nm was recorded every 30 s for 22 min as a measure of Thioredoxin Reductase Activity."}, "[2]": {"system": "Human fibroblast cells", "assay": "MTT cytotoxicity assay on fibroblasts", "assay_type": "cell-based", "details": "for fibroblasts viability when treated at the IC50 value in Caco-2: 3a 2.5 µM, 3b 5.1 µM, 2a 12.3 µM, 2b 10.5 µM; for IC50: MTT, mean ± SE", "method": "(§1) Human Caco-2 cell line (TC7 clone) was kindly provided by Dr. Edith Brot-Laroche (Université Pierre et Marie Curie-Paris 6, UMR S 872, Les Cordeliers, France). Human fibroblast cells were kindly provided by Dr. Julio Montoya (Unidad de Bioquímica, Facultad de Veterinaria, Universidad de Zaragoza, Spain). Caco-2 cells (passages 40–70) and fibroblasts (passages 10–30) were maintained in a humidified atmosphere of 5% CO2 at 37 °C. Cells were grown in Dulbecco’s Modified Eagles medium (DMEM) (Gibco Invitrogen, Paisley, UK) supplemented with 20% fetal bovine serum (FBS), 1% non-essential amino acids, 1% penicillin (1000 U/mL), 1% streptomycin (1000 μg/mL) and 1% amphotericin (250 U/mL). The cells were passaged enzymatically with 0.25% trypsin-1 mM EDTA. Caco-2 cells were sub-cultured on 25 cm^2 plastic flasks at a density of 1.2 × 10^4 cells/cm^2, while fibroblasts were sub-cultured on 75 cm^2 plastic flasks at a density of 1 × 10^4 cells/cm^2. Culture medium was replaced every 2 days.\n(§2) Gold complex was diluted in dimethyl sulfoxide (DMSO) to a stock solution at 20 mM and then re-diluted to a working solution at 2.5 mM before diluting it in cell culture medium to treat cells at desired concentrations.\n(§3) For cytotoxicity screening assays, Caco-2 cells were seeded in 96-well plates at a density of 4 × 10^3 cells/well. Culture medium was replaced with medium containing drug panel 24 h post-seeding and cells were incubated for 72 h. In fibroblasts, culture medium containing metal gold complexes was added 10 days post-seeding. Antiproliferative effect was measured with MTT assay as previously described by Mármol et al.. Absorbance at 540/620 nm was measured with SPECTROstar Nano (BMG Labtech). To determine the selectivity index (SI) the IC50 value in fibroblasts was divided by IC50 value in Caco-2, obtaining a ratio cancerous/normal cells toxicity."}, "[3]": {"system": "Caco-2/TC7 cells", "assay": "MTT cytotoxicity / antiproliferative assay on Caco-2/TC7 cells", "assay_type": "cell-based, human", "method": "as §1, with “Human” for “Human Caco-2 cell line (TC7 clone) was kindly provided by Dr. Edith Brot-Laroche (Université Pierre et Marie Curie-Paris 6, UMR S 872, Les Cordeliers, France). Human”, “The cells were passaged enzymatically with 0.25% trypsin-1 mM EDTA.” left out\nas §2\nThe influence of hyperthermia was studied by incubating cells at 40 °C for 1 h immediately after treating them with the gold complexes.\nas §3, with “Absorbance at 540/620 nm was measured with SPECTROstar Nano (BMG Labtech).” left out"}, "[4]": {"assay": "Distribution coefficient (logD7.4), shake-flask n-octanol/buffered water", "assay_type": "physicochemical", "details": "n-octanol/phosphate buffered saline pH 7.4, shake-flask", "method": "The n-octanol-water coefficients of the phosphane derivatives were determined as previously reported using a shake-flask method. Briefly: Buffered-saline distilled water (100 mL, phosphate buffer [PO4^3−] = 10 mM, [NaCl] = 0.15 M, pH 7.4) and n-octanol (100 mL) were shaken together for 72 h to allow saturation of both phases. 1 mg of the complexes was dissolved in 5 mL of the aqueous phase and 5 mL of the organic phase were added, mixing for 10 min. The concentration of the complexes in the organic and aqueous phases were then determined using UV absorbance spectroscopy. LogD7.4 = log{[compound(organic phase)]/[compound(aqueous phase)]}.\nThe lipophilicity can be measured by the partition coefficient water/n-octanol, logD, by experimental procedures such as the shake flask method, which affords the distribution of the drug between an equal amount of n-octanol and water (or buffered aqueous solution)."}, "[5]": {"details": "72 h, MTT, 37 °C, mean ± SE, read-out: IC50 Caco-2/TC7 37 °C"}, "[6]": {"details": "read-out: IC50 Caco-2/TC7 40 °C, 72 h, MTT, 1 h at 40 °C immediately after treatment (hyperthermia), mean ± SE"}, "[7]": {"details": "Homo sapiens, Caco2/TC7, read-out: IC50 Caco-2/TC7 40 °C"}},
  "note": "Where two headings read alike, the source gives them in different places.",
  "data": [
    {"smiles": "CC(=O)OC[C@H]1O[C@@H]([S-])[C@H](OC(C)=O)[C@@H](OC(C)=O)[C@@H]1OC(C)=O.CCP(CC)CC.[Au+]", "note": "[auranofin, reference compound]", "values": [
      {"measurement": "TrxR1 activity related to control", "setting": "[1]", "result": "Inhibitory effect"}
    ]},
    {"smiles": "FC(F)(F)C(F)(F)C(F)(F)C(F)(F)C(F)(F)C(F)(F)CC[N+]12CN3CN(C1)C[P+]([Au-2]([Cl])[P+]14CN5CN(C[N+](CCC(F)(F)C(F)(F)C(F)(F)C(F)(F)C(F)(F)C(F)(F)F)(C5)C1)C4)(C3)C2.O=S(=O)([O-])C(F)(F)F.O=S(=O)([O-])C(F)(F)F", "note": "[Complex 2b, [AuCl(PTA-CH2CH2(CF2)5CF3)2](TfO)2]", "values": [
      {"measurement": "fibroblasts viability when treated at the IC50 value in Caco-2", "setting": "[2]", "result": "nearly two-fold reduction in the viability of fibroblasts"},
      {"measurement": "IC50", "setting": "[2]", "result": "11.6 ± 1.05", "unit": "µM"},
      {"measurement": "IC50", "setting": "[3]; [5]", "result": "10.7 ± 0.6", "unit": "µM"},
      {"measurement": "IC50", "setting": "[3]; [6]", "result": "9 ± 0.39", "unit": "µM"},
      {"measurement": "logD7.4", "setting": "[4]", "result": 0.82}
    ]},
    {"smiles": "FC(F)(F)C(F)(F)C(F)(F)C(F)(F)C(F)(F)C(F)(F)CC[N+]12CN3CN(CP(C3)C1)C2", "note": "[Lb, [PTA-CH2CH2(CF2)5CF3]TfO]", "values": [
      {"measurement": "IC50", "setting": "[3]", "result": "27.2 ± 7.56", "unit": "µM"},
      {"measurement": "IC50", "setting": "[3]; [7]", "result": "24 ± 6.6", "unit": "µM"}
    ]},
    {"smiles": "CCCCCCCC[N+]12CN3CN(CP(C3)C1)C2", "note": "[La, [PTA-CH2(CH2)6CH3]I]", "values": [
      {"measurement": "IC50", "setting": "[3]", "result": "49.32 ± 0.02", "unit": "µM"},
      {"measurement": "IC50", "setting": "[3]; [7]", "result": "47.1 ± 0.92", "unit": "µM"}
    ]},
    {"smiles": "CCCCCCCC[N+]12CN3CN(C1)C[P+]([Au-2]([Cl])[P+]14CN5CN(C[N+](CCCCCCCC)(C5)C1)C4)(C3)C2.[I-].[I-]", "note": "[Complex 2a, [AuCl(PTA-CH2(CH2)6CH3)2]I2]", "values": [
      {"measurement": "fibroblasts viability when treated at the IC50 value in Caco-2", "setting": "[2]", "result": "nearly two-fold reduction in the viability of fibroblasts"},
      {"measurement": "Selectivity Index (SI)", "setting": "[2]; IC50 fibroblasts/IC50 Caco-2", "result": 1.09},
      {"measurement": "IC50", "setting": "[2]", "result": "13.5 ± 0.97", "unit": "µM"},
      {"measurement": "IC50", "setting": "[3]; [5]", "result": "12.3 ± 1.18", "unit": "µM"},
      {"measurement": "IC50", "setting": "[3]; [6]", "result": "10.4 ± 0.51", "unit": "µM"},
      {"measurement": "logD7.4", "setting": "[4]", "result": "−0.12"}
    ]},
    {"smiles": "FC(F)(F)C(F)(F)C(F)(F)C(F)(F)C(F)(F)C(F)(F)CC[N+]12CN3CN(C1)C[PH]([Au][Cl])(C3)C2.O=S(=O)([O-])C(F)(F)F", "note": "[Complex 1b, [AuCl(PTA-CH2CH2(CF2)5CF3)]TfO]", "values": [
      {"measurement": "IC50", "setting": "[3]; [5]", "result": "5.98 ± 1.8", "unit": "µM"},
      {"measurement": "IC50", "setting": "[3]; [6]", "result": "4.46 ± 0.79", "unit": "µM"},
      {"measurement": "logD7.4", "setting": "[4]", "result": 0.63}
    ]}
  ]
}
